{"source": "patent US10781426B2", "about": "(priority 2012, dated 2020)", "key": {"DPP4": {"test_system": "DPP4", "type": "cell-based"}, "HCoV EMC": {"test_system": "HCoV EMC", "type": "cell-based"}}}
{"molecule": "Nc1ncnc2c1ncn2[C@@H]1O[C@H](CO)[C@@H](O)[C@H]1O", "note": "[adenosine]", "values": [{"measurement": "DPP4 expression", "setting": "DPP4", "value": "down regulates"}, {"measurement": "cells' susceptibility to virus infection", "setting": "HCoV EMC", "value": "reduces the cells' susceptibility to virus infection"}, {"measurement": "virus replication", "setting": "HCoV EMC", "value": "reduces virus replication"}]}
